Data taken from US5976523A, “Method for healing compromised tissues using pyrimidine derivatives” (Mitsui Pharmaceuticals, Inc., priority 1995, dated 1999).
Structures can show the parent of a compound that is named as a salt.

Legend:
TMK1 cells [1] = assay: TMK1 cell migration in Boyden's chamber; type: cell-based; details: 4 hours
Description: TMK1 cells, low-differentiating epithelial cells, were treated with trypsin. […] The culture medium in the lower well was then subjected to fixing and staining, and cells which had migrated therein were counted. Experiments were conducted concurrently in three chambers.
Each value will be presented as a mean ±S.D. and with respect to each compound, numbers of cells will be presented in the order of a) control, b) each pyrimidine compound (whose concentration will be specifically indicated), c) 10 ng/ml of EGF, and d) a mixed solution of each pyrimidine compound + EGF.

TMK1 cells [2] = assay: Morphological change of TMK1 cells; type: cell-based; details: EGF alone 10 ng/ml, day 1
[3] = test system: primary cultured gastric mucosal cells; assay: Wound repair model with primary cultured gastric mucosal cells; type: cell-based, rabbit; details: for area of the wounded region (mean±S.D.): EGF alone 10 ng/ml
Description: Primary cultured gastric mucosal cells were prepared by mechanically peeling and mincing the gastric mucosa of a rabbit having a body weight of 2 kg and then digesting the minced gastric mucosa with 0.07% collagenase. The primary cultured gastric mucosal cells were cultured at a cell concentration of 3.3×10^5 cells/ml in F-12 culture medium containing 10% fetal calf serum added therein. For this cultivation, a culture dish (60 mm in diameter) coated with collagen type I was used. […] Using an anti-BrdU antibody, the cells in the S phase were stained to identify proliferated cells.
Their effects on the process of restoration were measured under the above-described parameters. […] In each of the control group and the medicament-added groups, the area of the wounded region was measured at the 0th hour, 12th hour, 24th hour, 36th hour and 48th hour. The measurement results will be given in this order.
The control group and the groups added with the medicament at the respective concentrations were each subjected to the experiment with n=5. The results will each be presented as a (mean±S. D.) mm2. A test of significance was conducted relative to the control group. * stands for p<0.05, ** for p<0.01, *** for p<0.001. A further test of significance was conducted relative to a group added with 10 ng/ml of EGF. + stands for p<0.05, and ++ for <0.01.

| Compound | numbers of cells counted (migrated), mean ±S.D. (TMK1 cells [1]; compound 0.1 mM + EGF 10 ng/ml) | numbers of cells counted (migrated), mean ±S.D. (TMK1 cells [1]; compound alone, 0.1 mM) | morphological changes (TMK1 cells [2]) | area of the wounded region (mean±S.D.) ([3]; 0th hour) | area of the wounded region (mean±S.D.) ([3]; 12th hour) | area of the wounded region (mean±S.D.) ([3]; 24th hour) | area of the wounded region (mean±S.D.) ([3]; 36th hour) | area of the wounded region (mean±S.D.) ([3]; 48th hour) | effect on migration, proliferation and restoration of the cells ([3]; EGF alone 1-10 ng/ml) |
| --- | --- | --- | --- | --- | --- | --- | --- | --- | --- |
| CN1C(=O)Cc2cnc(N3CCCCC3)nc21 | 20.9±3.9 | 2.9±1.0 | – | – | – | – | – | – | – |
| CCC1CCN(c2ncc3c(n2)N(C)C(=O)C3)CC1 [2-(4-ethylpiperidino)-7-methyl-6-oxo-5,6-dihydro(7H)pyrro[2,3-d]pyrimidinemaleate] | 144±3.1 | 28.6±18.4 | – | – | – | – | – | – | – |
| CN1C(=O)C(C)(C)c2cnc(N3CCCCC3)nc21 [2-piperidino-5,5,7-trimethyl-6-oxo-5,6-dihydro(7H)pyrro[3,4-d]pyrimidine maleate] | 147.2±13.2 | 33±12.6 | – | – | – | – | – | – | – |
| EGF: epidermal growth factor | – | – | significant morphological changes were observed as early as day 1, presenting scattering | 2.06±0.06 mm2 | 0.91±0.03 mm2 | 0.46±0.15 mm2 | 0.08±0.04 mm2 | 0 mm2 | promoted migration and proliferation of the cells in a concentration-dependent manner and accelerated the speed of restoration |
